This is an account of results in patent US5854280A, “Antifungal sordaridin derivatives” (Glaxo Wellcome S.A., priority 1994, dated 1998).

Converted amounts (≈) assume the structure as drawn.

The test system of one series is C. albicans 4711E. The series is described as follows: protection of mice infected with C. albicans. The settings on record: 50 mg/kg po. Type of series: in vivo, male mice infected with C. albicans 4711E. From the text:
The in vivo evaluation of compounds of formula (I) can be carried out at a series of dose levels by administration (e.g. subcutaneously, orally, intraperitoneally or intravenously) to mice or rats inoculated with a strain of Candida albicans. Untreated animals die within 3 to 9 days and the dose level at which the test compound provides 50% protection against the lethal effect of the infection is noted.
(§1) The compounds of the invention are essentially non-toxic at therapeutically useful levels. […] The LD50 value for the compound of example 8, in male mice is >1000 mg/kg po.

Series [1] can be described thus: acute oral toxicity (LD50). Format: in vivo. The settings on record: male mice. The procedure:
as §1

The subject of another series is C. aibicans 2402E. The series is described as follows: in vitro antifungal MIC, two-fold serial dilution. Type of series: cell-based, Candida albicans. The procedure:
(§2) The in vitro evaluation of the anti-fungal activity of compounds of the invention was performed on liquid or solid medium by the anti-fungal two-fold serial dilution technique of determining the minimum inhibitory concentration (MIC) of anti-fungal agent that inhibited development of growth after 24 to 48 hours of incubation at 37° C. In practice, a series of agar plates or broth microdilution panels containing two-fold dilutions of anti-fungal agent tested were inoculated with a standard culture of a clinically relevant pathogen, for example, Candida albicans. The agar plates or broth microdulution panels were then examined for the presence or absence of growth of the fungus and the appropriate MIC values were noted.
(§3) Compounds of formula (I) have been tested for anti fungal activity in a standard in vitro screen and the minimum inhibiting concentration (MIC; μg/ml) determined for each compound against a variety of clinically relevant pathogens.

In a further series the test system is C. albicans 1208E. The series is described as follows: in vitro antifungal MIC, two-fold serial dilution. Type of series: cell-based, Candida albicans. The procedure: as §2, §3
The next series concerns C. albicans 2005E. The series is described as follows: in vitro antifungal MIC, two-fold serial dilution. Format: cell-based, Candida albicans. The procedure:
as §2, §3

For another series, the system named is C. albicans 4711. The series is described as follows: in vitro antifungal MIC, two-fold serial dilution. Format: cell-based, Candida albicans. The procedure: as §2, §3
In another series the test system is C. tropicalis 2808E. The series is described as follows: in vitro antifungal MIC, two-fold serial dilution. Type of series: cell-based, Candida tropicalis. The procedure:
as §2, §3

Series [2] deals with C. psuedotropicalis 2371E. The series is described as follows: in vitro antifungal MIC, two-fold serial dilution. Format: cell-based, Candida pseudotropicalis. The procedure:
as §2, §3

The test system of another series is C. glabrata 2375E. The series is described as follows: in vitro antifungal MIC, two-fold serial dilution. Type of series: cell-based, Candida glabrata. The procedure: as §2, §3
A further series relates to C. glabrata 2376E. The series is described as follows: in vitro antifungal MIC, two-fold serial dilution. Format: cell-based, Candida glabrata. The procedure:
as §2, §3

A further series has as its system C. neoformans 2867E. The series is described as follows: in vitro antifungal MIC, two-fold serial dilution. Type of series: cell-based, Cryptococcus neoformans. The procedure: as §2, §3
Series [3] relates to battery of fungal organisms. The following applies: tested against a battery of fungal organisms; cited from earlier work.
For series [4] the following is noted: British Patent 1,162,027 / Japanese application J6 2040292A; cited from earlier work.

A word on the LD50: it is the dose expected to kill half of the subjects tested. A lower LD50 goes with a more toxic substance. For `CC(C)C1=CC2CC3(C=O)C4CCC(C)C4CC2(COC2CC4OC(C)(C)OC4C(C)O2)C13C(=O)[O-].[Na+]` [Example 8, [1R-(1α,3aβ,4β,4aβ,7β,7aα,8aβ)]8a-[(2,6-Dideoxy-3,4-O-isopropylidene-β-D-allopyranosyloxy)methyl]-4-formyl-4,4a,5,6,7,7a,8,8a-octahydro-7-methyl-3-(1-methylethyl)-1,4-methano-s-indacene-3a(1H)-carboxylic acid, sodium salt], the “activity in protecting male mice infected with C. albicans 4711E” value with C. albicans 4711E was “active in protecting male mice”. Besides, the 50% lethal dose (LD50) in series [1] is recorded as above 1000 mg/kg.
Turning to `CCCOC1C(C)OC(OCC23CC4C(C)CCC4C4(C=O)CC2C=C(C(C)C)C43C(=O)O)C2OC12` [Example 52, [1R-(1α,3aβ,4β,4aβ,7β,7aα,8aβ)]8a-[(2,3-Anhydro-6-deoxy-4-O-propyl-β-D-mannopyranosyloxy)methyl]-4-formyl-4,4a,5,6,7,7a,8,8a-octahydro-7-methyl-3-(1-methylethyl)-1,4-methano-s-indacene-3a(1H)-carboxylic acid], the “MIC (minimum inhibiting concentration)” value was determined as 0.008 µg/mL (≈ 0.0159 µM) in the series with C. aibicans 2402E; 0.004 µg/mL (≈ 0.00796 µM) against C. albicans 1208E; 0.001 µg/mL (≈ 0.00199 µM) in the series with C. albicans 2005E; 0.004 µg/mL (≈ 0.00796 µM) in the series on C. albicans 4711; 0.030 µg/mL (≈ 0.0597 µM) in the series with C. tropicalis 2808E; 0.001 µg/mL (≈ 0.00199 µM) in [2]. The “MIC (minimum inhibiting concentration)” value against C. glabrata 2375E turned out to be 8.00 µg/mL (≈ 15.9 µM); with C. glabrata 2376E, 8.00 µg/mL (≈ 15.9 µM); with C. neoformans 2867E, 1.00 µg/mL (≈ 1.99 µM).
For `CC(C)C1=CC2CC3(C=O)C4CCC(C)C4CC2(COC2OC(C)C(OCc4ccccc4)C4OC24)C13C(=O)O` [Example 54, [1R-(1α,3aβ,4β,4aβ,7β,7aα,8aβ)]8a-[(2,3-Anhydro-4-O-benzyl-6-deoxy-β-D-mannopyranosyloxy)methyl]-4-formyl-4,4a,5,6,7,7a,8,8a-octahydro-7-methyl-3-(1-methylethyl)-1,4-methano-s-indacene-3a(1H)-carboxylic acid], the “MIC (minimum inhibiting concentration)” value in the series with C. aibicans 2402E was at most 0.001 µg/mL; in the series on C. albicans 1208E it was at most 0.001 µg/mL; in the series with C. albicans 2005E it was at most 0.001 µg/mL; in the series on C. albicans 4711, at most 0.001 µg/mL; against C. tropicalis 2808E, at most 0.001 µg/mL; in series [2], 0.01 µg/mL (≈ 0.0182 µM). For the same molecule, the figures for the “MIC (minimum inhibiting concentration)” value against C. glabrata 2375E, with C. glabrata 2376E and against C. neoformans 2867E were 8.00 µg/mL (≈ 14.5 µM), 8.00 µg/mL (≈ 14.5 µM) and 2.00 µg/mL (≈ 3.63 µM), respectively.
Regarding `CC(C)C(=O)OC1C(C)OC(OCC23CC4C(C)CCC4C4(C=O)CC2C=C(C(C)C)C43C(=O)O)C2OC12` [Example 59, [1R-(1α,3aβ,4β,4aβ,7β,7aα,8aβ)]8a-[(2,3-Anhydro-6-deoxy-4-O-(1-methylethyl)carbonyl-β-D-mannopyranosyloxy)methyl]-4-formyl-4,4a,5,6,7,7a,8,8a-octahydro-7-methyl-3-(1-methylethyl)-1,4-methano-s-indacene-3a(1H)-carboxylic acid], the “MIC (minimum inhibiting concentration)” value is 0.008 µg/mL (≈ 0.0151 µM) against C. aibicans 2402E; 0.015 µg/mL (≈ 0.0283 µM) in the series with C. albicans 1208E; at most 0.001 µg/mL in the series on C. albicans 2005E; 0.002 µg/mL (≈ 0.00377 µM) in the series on C. albicans 4711; 0.015 µg/mL (≈ 0.0283 µM) against C. tropicalis 2808E; 0.015 µg/mL (≈ 0.0283 µM) in series [2]. Besides, the “MIC (minimum inhibiting concentration)” value in the series with C. glabrata 2375E turned out to be 16.0 µg/mL (≈ 30.2 µM); in the series with C. glabrata 2376E, 16.0 µg/mL (≈ 30.2 µM); in the series with C. neoformans 2867E, 1.00 µg/mL (≈ 1.88 µM).
Consider `C=CCOC1C(C)OC(OCC23CC4C(C)CCC4C4(C=O)CC2C=C(C(C)C)C43C(=O)O)C2OC12` [Example 68, [1R-(1α,3aβ,4β,4aβ,7β,7aβ,8aβ)]8a-[(4-O-Allyl,2,3-anhydro,6deoxy-β-D-mannopyranosyl)oxy-methyl]-4-formyl-4,4a5,6,7,7a8,8a-octahydro-7-methyl-3-(1-methylethyl)-1,4-methano-s-indacene-3a(1H)-carboxylic acid], for which the “MIC (minimum inhibiting concentration)” value against C. aibicans 2402E came out at 0.002 µg/mL (≈ 0.00399 µM); in the series with C. albicans 1208E it was 0.060 µg/mL (≈ 0.12 µM); in the series on C. albicans 2005E, 0.060 µg/mL (≈ 0.12 µM); against C. albicans 4711, 0.030 µg/mL (≈ 0.0599 µM); with C. tropicalis 2808E, 0.250 µg/mL (≈ 0.499 µM); in series [2], 0.015 µg/mL (≈ 0.03 µM). In addition, the entries for the “MIC (minimum inhibiting concentration)” value with C. glabrata 2375E, against C. glabrata 2376E and in the series with C. neoformans 2867E were 31.00 µg/mL (≈ 61.9 µM), 31.00 µg/mL (≈ 61.9 µM) and 1.00 µg/mL (≈ 2 µM), respectively.
As for `CO[C@H]1[C@@H](O)[C@H](O)[C@H](OC[C@@]23C[C@@H]4[C@H](C)CC[C@H]4[C@@]4(C=O)CC2C=C(C(C)C)[C@@]34C(=O)O)O[C@@H]1C` [sordarin], in series [3], the antifungal activity entry is on record as “only moderately active” and the spectrum of action entry is recorded as “limited spectra of action”. In addition, the reported activity entry in series [4] is “fungistatic activity”.
Turning to `C/C=C/C=C\C(=O)O[C@H]1[C@H](O)[C@H](OCC23C[C@@H]4[C@H](C)CC[C@H]4C4(C=O)CC2C=C(C(C)C)C34C(=O)O)O[C@H](C)[C@H]1OC` (some centres unmarked) [zofimarin], in series [3], the antifungal activity result is “only moderately active” and the spectrum of action result is recorded as “limited spectra of action”. In addition, the reported activity result in [4] is “antifungal activity”.
